Measured values from patent US9302999B2, “Substituted triazoles as herbicides” (E. I. DU PONT DE NEMOURS AND COMPANY, priority 2012, dated 2016).

Assays:
Format in all cases: in vivo
[1] = tested on: bromegrass, downy (downy bromegrass, Bromus tectorum); assay: Test C pre-/postemergence: bromegrass, downy
Text: (§1) Seeds of plant species selected from blackgrass (Alopecurus myosuroides), bromegrass, downy (downy bromegrass, Bromus tectorum), foxtail, green (green foxtail, Setaria viridis), ryegrass, Italian (Italian ryegrass, Lolium multiflorum), winter wheat (Triticum aestivum), wild oat (Avena fatua), galium (catchweed bedstraw, Galium aparine), bermudagrass (Cynodon dactylon), surinam grass (Brachiaria decumbens), cocklebur (common cocklebur, Xanthium strumarium), corn (Zea mays), large crabgrass (Digitaria sanguinalis), woolly cupgrass (Eriochloa villosa), foxtail, giant (giant foxtail, Setaria faberii), goosegrass (Eleusine indica), johnsongrass (Sorghum halepense), kochia (Kochia scoparia), lambsquarters (Chenopodium album), morningglory (Ipomoea coccinea), nightshade (eastern black nightshade, Solanum ptycanthum), nutsedge, yellow (yellow nutsedge, Cyperus esculentus), pigweed (Amaranthus retroflexus), ragweed (common ragweed, Ambrosia elation), soybean (Glycine max), common (oilseed) sunflower (Helianthus annuus), Russian thistle (Salsola kali) and velvetleaf (Abutilon theophrasti) were planted into a blend of loam soil and sand and treated preemergence with test chemicals formulated in a non-phytotoxic solvent mixture which included a surfactant.
(§2) At the same time, plants selected from these crop and weed species and also barley (winter barley, Hordeum vulgare), canarygrass (Phalaris minor), chickweed (common chickweed, Stellaria media) windgrass (Apera spica-venti) and deadnettle (henbit deadnettle, Lamium amplexicaule) were planted in pots containing Redi-Earth® planting medium (Scotts Company, 14111 Scottslawn Road, Marysville, Ohio 43041) comprising spaghnum peat moss, vermiculite, wetting agent and starter nutrients and treated with postemergence applications of test chemicals formulated in the same manner. Plants ranged in height from 2 to 18 cm (1- to 4-leaf stage) for postemergence treatments.
(§3) Treated plants and controls were maintained in a greenhouse for 13 to 15 days, after which time all species were compared to controls and visually evaluated. Plant response ratings, summarized in Table C, are based on a scale of 0 to 100 where 0 is no effect and 100 is complete control. A dash (-) response means no test result.

[2] = tested on: foxtail, green (green foxtail, Setaria viridis); assay: Test C pre-/postemergence: foxtail, green
Text: as §1, §2, §3

[3] = tested on: surinam grass (Brachiaria decumbens); assay: Test C pre-/postemergence: surinam grass
Text: as §1, §2, §3

[4] = tested on: barley (winter barley, Hordeum vulgare); assay: Test C postemergence: barley
Text: as §2, §3

[5] = tested on: windgrass (Apera spica-venti); assay: Test C postemergence: windgrass
Text: as §2, §3

[6] = tested on: galium (catchweed bedstraw, Galium aparine); assay: Test D pre-/postemergence: galium
Text: (§4) Seeds of plant species selected from bluegrass (annual bluegrass, Poa annua), blackgrass (Alopecurus myosuroides), canarygrass (Phalaris minor), chickweed (common chickweed, Stellaria media), galium (catchweed bedstraw, Galium aparine), bromegrass, downy (downy bromegrass, Bromus tectorum), field poppy (Papaver rhoeas), field violet (Viola arvensis), foxtail, green (green foxtail, Setaria viridis), deadnettle (henbit deadnettle, Lamium amplexicaule), ryegrass, Italian (Italian ryegrass, Lolium multiflorum), kochia (Kochia scoparia), lambsquarters (Chenopodium album), oilseed rape (Brassica napus), pigweed (Amaranthus retroflexus), Russian thistle (Salsola iberica), chamomile (scentless chamomile, Matricaria inodora), speedwell (bird's-eye speedwell, Veronica persica), barley, spring (spring barley, Hordeum vulgare), wheat, spring (spring wheat, Triticum aestivum), buckwheat, wild (wild buckwheat, Polygonum convolvulus), mustard, wild (wild mustard, Sinapis arvensis), oat, wild (wild oat, Avena fatua), radish, wild (wild radish, Raphanus raphanistrum), windgrass (Apera spica-venti), barley, winter (winter barley, Hordeum vulgare), and wheat, winter (winter wheat, Triticum aestivum) were planted into a silt loam soil and treated preemergence with test chemicals formulated in a non-phytotoxic solvent mixture which included a surfactant. At the same time, these same crop and weed species were planted in pots containing the planting medium comprising spaghnum peat moss, vermiculite, wetting agent and starter nutrients and treated with postemergence applications of the test chemicals formulated in the same manner. Plants ranged in height from 2 to 18 cm (1- to 4-leaf stage).
(§5) Treated plants and controls were maintained in a controlled growth environment for 14 to 21 days after which time all species were compared to controls and visually evaluated. Plant response ratings, summarized in Table D, are based on a scale of 0 to 100 where 0 is no effect and 100 is complete control. A dash (-) response means no test result.

[7] = tested on: lambsquarters (Chenopodium album); assay: Test D pre-/postemergence: lambsquarters
Text: as §4, §5

[8] = tested on: oilseed rape (Brassica napus); assay: Test D pre-/postemergence: oilseed rape
Text: as §4, §5

[9] = tested on: pigweed (Amaranthus retroflexus); assay: Test D pre-/postemergence: pigweed
Text: as §4, §5

[10] = Postemergence, 16 g ai/ha, scale 0 to 100, 0 no effect, 100 complete control
[11] = Postemergence, 31 g ai/ha, scale 0 to 100 (0 no effect, 100 complete control)
[12] = Postemergence, 62 g ai/ha, scale 0 to 100 (0 no effect, 100 complete control)
[13] = Postemergence, 125 g ai/ha, scale 0 to 100, 0 no effect, 100 complete control
[14] = 16 g ai/ha, scale 0 to 100, 0 no effect, 100 complete control
[15] = 31 g ai/ha, scale 0 to 100 (0 no effect, 100 complete control)
[16] = 62 g ai/ha, scale 0 to 100 (0 no effect, 100 complete control)
[17] = 125 g ai/ha, scale 0 to 100, 0 no effect, 100 complete control
[18] = Postemergence, 250 g ai/ha, scale 0 to 100
[19] = Preemergence, 31 g ai/ha, scale of 0 to 100, 0 is no effect, 100 is complete control
[20] = Preemergence, 125 g ai/ha, scale 0 to 100, 0 no effect, 100 complete control
[21] = Preemergence, 250 g ai/ha, scale 0 to 100, 0 no effect, 100 complete control
[22] = Preemergence, 62 g ai/ha, scale of 0 to 100, 0 is no effect, 100 is complete control
[23] = Postemergence, 250 g ai/ha, scale 0 to 100 (0 no effect, 100 complete control)
[24] = Postemergence, 16 g ai/ha, scale 0 to 100
[25] = Preemergence, 31 g ai/ha, scale 0 to 100 (0 no effect, 100 complete control)
[26] = Preemergence, 62 g ai/ha, scale 0 to 100
[27] = Preemergence, 125 g ai/ha, scale 0 to 100
[28] = Preemergence, 250 g ai/ha, scale 0 to 100
[29] = Preemergence, 16 g ai/ha, scale 0 to 100 (0 no effect, 100 complete control)

Cc1nn(-c2ccc(C(F)(F)F)cc2)nc1Cc1cccc(C(F)(F)F)c1 [Compound 124]
20: Plant response rating, Surinam Grass [3, 13]
5: Plant response rating, Surinam Grass [3, 10] | Plant response rating, Barley [4, 14]
30: Plant response rating, Barley [4, 16] | Plant response rating, Barley [4, 17]
95: Plant response rating, Foxtail, Green [2, 13] | Plant response rating, Windgrass [5, 16]
65: Plant response rating, Foxtail, Green [2, 10]
10: Plant response rating, Surinam Grass [3, 11]
80: Plant response rating, Windgrass [5, 15]
0: Plant response rating, Bromegrass, Downy [1, 10] | Plant response rating, Bromegrass, Downy [1, 11] | Plant response rating, Bromegrass, Downy [1, 12] | Plant response rating, Bromegrass, Downy [1, 13]
90: Plant response rating, Foxtail, Green [2, 12]
70: Plant response rating, Foxtail, Green [2, 11]
98: Plant response rating, Windgrass [5, 17]
50: Plant response rating, Windgrass [5, 14]
15: Plant response rating, Surinam Grass [3, 12] | Plant response rating, Barley [4, 15]

Cc1nn(-c2ccc(F)cc2)nc1Oc1ccnc(C(F)(F)F)c1 [Compound 129, 4-[[2-(4-fluorophenyl)-5-methyl-2H-1,2,3-triazol-4-yl]oxy]-2-(trifluoromethyl)pyridine]
98: Plant response rating, Surinam Grass [3, 20] | Plant response rating, Surinam Grass [3, 21] | Plant response rating: Galium [6, 23]
30: Plant response rating, Bromegrass, Downy [1, 19] | Plant response rating, Barley [4, 15] | Plant response rating, Oilseed Rape [8, 27] | Plant response rating, Pigweed [9, 29]
45: Plant response rating, Surinam Grass [3, 11] | Plant response rating, Surinam Grass [3, 12] | Plant response rating, Barley [4, 17]
95: Plant response rating, Bromegrass, Downy [1, 20] | Plant response rating, Foxtail, Green [2, 12] | Plant response rating, Foxtail, Green [2, 13] | Plant response rating, Foxtail, Green [2, 18] | Plant response rating, Surinam Grass [3, 19] | Plant response rating, Surinam Grass [3, 22] | Plant response rating: Lambsquarters [7, 12] | Plant response rating: Oilseed Rape [8, 12]
75: Plant response rating: Galium [6, 12]
60: Plant response rating, Surinam Grass [3, 18] | Plant response rating, Windgrass [5, 15] | Plant response rating, Oilseed Rape [8, 28]
85: Plant response rating, Foxtail, Green [2, 11] | Plant response rating, Windgrass [5, 17] | Plant response rating: Galium [6, 13] | Plant response rating: Lambsquarters [7, 11] | Plant response rating, Lambsquarters [7, 24]
10: Plant response rating, Oilseed Rape [8, 26]
100: Plant response rating, Bromegrass, Downy [1, 21] | Plant response rating, Windgrass ([5]; 250 g ai/ha, scale 0 to 100) | Plant response rating, Galium [6, 26] | Plant response rating, Galium [6, 27] | Plant response rating, Galium [6, 28] | Plant response rating: Lambsquarters [7, 13] | Plant response rating: Lambsquarters [7, 23] | Plant response rating, Lambsquarters [7, 28] | Plant response rating: Oilseed Rape [8, 13] | Plant response rating: Oilseed Rape [8, 23] | Plant response rating: Pigweed [9, 11] | Plant response rating: Pigweed [9, 12] | Plant response rating: Pigweed [9, 13] | Plant response rating: Pigweed [9, 23] | Plant response rating, Pigweed [9, 24] | Plant response rating, Pigweed [9, 27] | Plant response rating, Pigweed [9, 28]
50: Plant response rating, Surinam Grass [3, 13] | Plant response rating, Barley ([4]; 250 g ai/ha, scale 0 to 100) | Plant response rating: Galium [6, 11]
40: Plant response rating, Bromegrass, Downy [1, 13] | Plant response rating, Bromegrass, Downy [1, 18] | Plant response rating, Galium [6, 24]
90: Plant response rating, Foxtail, Green [2, 19] | Plant response rating, Foxtail, Green [2, 22] | Plant response rating, Foxtail, Green [2, 20] | Plant response rating, Foxtail, Green [2, 21] | Plant response rating, Lambsquarters [7, 26] | Plant response rating, Lambsquarters [7, 27] | Plant response rating, Pigweed [9, 26]
35: Plant response rating, Bromegrass, Downy [1, 11] | Plant response rating, Bromegrass, Downy [1, 12] | Plant response rating, Barley [4, 16]
80: Plant response rating, Bromegrass, Downy ([1]; Preemergence, 62 g ai/ha, scale 0 to 100, 0 no effect, 100 complete control) | Plant response rating, Windgrass [5, 16] | Plant response rating, Lambsquarters [7, 25] | Plant response rating: Oilseed Rape [8, 11] | Plant response rating, Oilseed Rape [8, 24] | Plant response rating, Pigweed [9, 25]
0: Plant response rating, Galium [6, 25] | Plant response rating, Lambsquarters [7, 29] | Plant response rating, Oilseed Rape [8, 29] | Plant response rating, Oilseed Rape [8, 25]
